According to PubChem BioAssay AID1963978 (Molecular Pharmacology Branch, DTP, NCI, 2024):

Tested on: 616215-338-R-J1-PDC spheroids with HUVEC/MSC, viability
Test: Anticancer human tumor 616215-338-R-J1-PDC patient-derived colon adenocarcinoma cell line growth inhibition [PI3K]
Details: for IC50: curve of first compound; for viability, T/C: stronger effect = lower value
Outline: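 Spheroid viability read-out. Co-cultures contained the tumor line plus HUVEC and human MSCs. Each agent was paired with a PI3K inhibitor (inavolisib, alpelisib, duvelisib, copanlisib) across half-log dilutions starting at clinical Cmax, or at 10 microM when Cmax was unknown.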
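Note: spheroids exposed to agents for seven days before the viability read.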

Cn1ncnc1[C@H]1c2n[nH]c(=O)c3cc(F)cc(c23)N[C@@H]1c1ccc(F)cc1 + Cc1nc(NC(=O)N2CCCC2C(N)=O)sc1-c1ccnc(C(C)(C)C(F)(F)F)c1
IC50 (second compound 0.0316 µM): > 0.1 µM
IC50 (second compound 0.1 µM): > 0.1 µM
IC50 (second compound 0.316 µM): > 0.1 µM
IC50 (second compound 1 µM): > 0.1 µM
IC50 (second compound 3.16 µM): > 0.1 µM
IC50 (second compound 10 µM): > 0.1 µM
viability, T/C (second compound 0.0316 µM, first compound 0.000316 µM): 95.2%
viability, T/C (second compound 0.0316 µM, first compound 0.001 µM): 88.9%
viability, T/C (second compound 0.0316 µM, first compound 0.00316 µM): 112%
viability, T/C (second compound 0.0316 µM, first compound 0.01 µM): 89.3%
viability, T/C (second compound 0.0316 µM, first compound 0.0316 µM): 109%
viability, T/C (second compound 0.0316 µM, first compound 0.1 µM): 99.1%
viability, T/C (second compound 0.1 µM, first compound 0.000316 µM): 101%
viability, T/C (second compound 0.1 µM, first compound 0.001 µM): 98.7%
viability, T/C (second compound 0.1 µM, first compound 0.00316 µM): 97.8%
viability, T/C (second compound 0.1 µM, first compound 0.01 µM): 97.2%
viability, T/C (second compound 0.1 µM, first compound 0.0316 µM): 104%
viability, T/C (second compound 0.1 µM, first compound 0.1 µM): 109%
viability, T/C (second compound 0.316 µM, first compound 0.000316 µM): 92%
viability, T/C (second compound 0.316 µM, first compound 0.001 µM): 103%
viability, T/C (second compound 0.316 µM, first compound 0.00316 µM): 89.6%
viability, T/C (second compound 0.316 µM, first compound 0.01 µM): 104%
viability, T/C (second compound 0.316 µM, first compound 0.0316 µM): 99.9%
viability, T/C (second compound 0.316 µM, first compound 0.1 µM): 90%
viability, T/C (second compound 1 µM, first compound 0.000316 µM): 107%
viability, T/C (second compound 1 µM, first compound 0.001 µM): 103%
viability, T/C (second compound 1 µM, first compound 0.00316 µM): 94.5%
viability, T/C (second compound 1 µM, first compound 0.01 µM): 93.4%
viability, T/C (second compound 1 µM, first compound 0.0316 µM): 90.2%
viability, T/C (second compound 1 µM, first compound 0.1 µM): 93.5%
viability, T/C (second compound 3.16 µM, first compound 0.000316 µM): 103%
viability, T/C (second compound 3.16 µM, first compound 0.001 µM): 94.6%
viability, T/C (second compound 3.16 µM, first compound 0.00316 µM): 98.5%
viability, T/C (second compound 3.16 µM, first compound 0.01 µM): 93%
viability, T/C (second compound 3.16 µM, first compound 0.0316 µM): 92.5%
viability, T/C (second compound 3.16 µM, first compound 0.1 µM): 87.7%
viability, T/C (second compound 10 µM, first compound 0.000316 µM): 107%
viability, T/C (second compound 10 µM, first compound 0.001 µM): 91.3%
viability, T/C (second compound 10 µM, first compound 0.00316 µM): 85.7%
viability, T/C (second compound 10 µM, first compound 0.01 µM): 81.3%
viability, T/C (second compound 10 µM, first compound 0.0316 µM): 81.4%
viability, T/C (second compound 10 µM, first compound 0.1 µM): 80.4%
